For 18 compounds, AC1.4 results are on record in US11780826B2 (Amgen Inc., priority 2017, dated 2023).

This assay has as its system Bovine cardiac myofibrils. In words: In vitro model of dose-dependent myofibril ATPase modulation (AC1.4, pyruvate kinase/lactate dehydrogenase-coupled ATPase assay at pCa25). The assay is classed as biochemical. Conditions: concentration at which ATPase activity was 1.4-fold higher than the bottom of the dose curve, mean of a minimum of two independent tests. Summed up:
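Detergent-skinned bovine cardiac myofibrils (typically 0.25-1.0 mg/ml) in Ca-buffered (EGTA/CaCl2) PK/LDH-coupled ATPase assay: 12 mM K-PIPES pH 6.80, 2 mM MgCl2, 1 mM ATP, 1 mM DTT, 0.5 mM NADH, 1.5 mM PEP. Hydrolysis followed at 340 nm; dose response fit to 4-parameter equation; AC1.4 is mean of ≥2 tests.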
Take `CCS(=O)(=O)c1ccnc(C(=O)N2[C@@H](C(=O)N[C@@H](c3cc(F)c(Cl)cc3F)C3CC3)C[C@H]3C[C@H]32)c1` [Example 133, (1R,3R,5R)-N-((R)-(4-chloro-2,5-difluorophenyl)(cyclopropyl)methyl)-2-((4-(ethylsulfonyl)-2-pyridinyl)carbonyl)-2-azabicyclo[3.1.0]hexane-3-carboxamide]: the AC1.4 came out at 0.2186 µM.

For the compound `N#CC1CN(S(=O)(=O)N2CCC[C@H](C(=O)N3C[C@@H](F)C[C@@H]3C(=O)NCc3ccc(C(F)(F)F)cc3)C2)C1` [Example 56, (4S)-1-(((3S)-1-((3-cyano-1-azetidinyl)sulfonyl)-3-piperidinyl)carbonyl)-4-fluoro-N-(4-(trifluoromethyl)benzyl)-D-prolinamide], the AC1.4 came to 0.06215 µM.

In turn, `CS(=O)(=O)c1cccc(C(=O)N2[C@@H](C(=O)N[C@@H](c3ccc(Cl)c(F)c3)C3COC3)C[C@H]3C[C@H]32)c1` [Example 264, (1R,3R,5R)-N-((R)-(4-chloro-3-fluorophenyl)(3-oxetanyl)methyl)-2-(3-(methylsulfonyl)benzoyl)-2-azabicyclo[3.1.0]hexane-3-carboxamide] returned an AC1.4 of 0.6615 µM.

Compound `N#CC1(c2cccc(C(=O)N3[C@@H](C(=O)N[C@@H](c4ccc(C(F)(F)F)cc4F)C4COC4)C[C@H]4C[C@H]43)c2)CC1` [Example 456, (1R,3R,5R)-2-(3-(1-cyanocyclopropyl)benzoyl)-N-((R)-(2-fluoro-4-(trifluoromethyl)phenyl)(3-oxetanyl)methyl)-2-azabicyclo[3.1.0]hexane-3-carboxamide] showed an AC1.4 of 1.882 µM.

With `C[C@@H](NC(=O)[C@H]1COCCN1C(=O)[C@H]1CCCN(S(=O)(=O)N2CC(C#N)C2)C1)c1ccc(C(F)(F)F)cc1` [Example 175, (3R)-4-(((3S)-1-((3-cyano-1-azetidinyl)sulfonyl)-3-piperidinyl)carbonyl)-N-((1R)-1-(4-(trifluoromethyl)phenyl)ethyl)-3-morpholinecarboxamide], the AC1.4 was found to be 0.3064 µM.

`O=C(NCc1ccc(C(F)(F)F)cc1)[C@H]1CCCN1C(=O)[C@H]1CCCN(S(=O)(=O)N2CC(OCc3ccc(Cl)cc3)C2)C1` [Example 210, 1-(((3S)-1-((3-((4-chlorobenzyl)oxy)-1-azetidinyl)sulfonyl)-3-piperidinyl)carbonyl)-N-(4-(trifluoromethyl)benzyl)-D-prolinamide] returned an AC1.4 of 0.4487 µM.

`CS(=O)(=O)c1cc(C(=O)N2[C@@H](C(=O)N[C@@H](c3cc(F)c(C(F)(F)F)cc3F)C3CC3)C[C@@H]3C[C@@H]32)ccn1` [Example 731, (1S,3R,5S)-N-((R)-cyclopropyl(2,5-difluoro-4-(trifluoromethyl)phenyl)methyl)-2-((2-(methylsulfonyl)-4-pyridinyl)carbonyl)-2-azabicyclo[3.1.0]hexane-3-carboxamide] had an AC1.4 of 6.763 µM.

For the compound `O=C(NCc1ccc(C(F)(F)F)cc1)[C@H]1CCCN1C(=O)[C@H]1CCCN(S(=O)(=O)N2CC(Nc3ccc(F)cc3)C2)C1` [Example 469, 1-(((3S)-1-((3-((4-fluorophenyl)amino)-1-azetidinyl)sulfonyl)-3-piperidinyl)carbonyl)-N-(4-(trifluoromethyl)benzyl)-D-prolinamide], the AC1.4 was 1.9915 µM.

Compound `O=C(NCc1ccc(C(F)(F)F)cc1)[C@H]1CCCN1C(=O)[C@H]1CCCN(S(=O)(=O)N2CC(c3ccon3)C2)C1` [Example 227, 1-(((3S)-1-((3-(1,2-oxazol-3-yl)-1-azetidinyl)sulfonyl)-3-piperidinyl)carbonyl)-N-(4-(trifluoromethyl)benzyl)-D-prolinamide] had an AC1.4 of 0.4927 µM.

`COC1CN(S(=O)(=O)N2CCC[C@H](C(=O)N3CCC[C@@H]3C(=O)NCc3ccc(C(F)(F)F)cc3)C2)C1` [Example 492, 1-(((3S)-1-((3-methoxy-1-azetidinyl)sulfonyl)-3-piperidinyl)carbonyl)-N-(4-(trifluoromethyl)benzyl)-D-prolinamide] had an AC1.4 of 2.256 µM.

Turning to `CS(=O)(=O)c1cccc(C(=O)N2CCOC[C@@H]2C(=O)N[C@@H](c2ccc(C(F)(F)F)cc2F)C2CC2)c1` [Example 576, (3R)-N-((R)-cyclopropyl(2-fluoro-4-(trifluoromethyl)phenyl)methyl)-4-(3-(methylsulfonyl)benzoyl)-3-morpholinecarboxamide], the AC1.4 was determined as 2.838 µM.

In the case of `CS(=O)(=O)c1cccc(C(=O)N2CCC[C@@H]2C(=O)N[C@@H](c2ccc(C(F)(F)F)c(F)c2)C2COC2)c1` [Example 179, N-((R)-(3-fluoro-4-(trifluoromethyl)phenyl)(3-oxetanyl)methyl)-1-(3-(methylsulfonyl)benzoyl)-D-prolinamide], the AC1.4 was 0.3231 µM.

Compound `O=C(NCc1ccc(C(F)(F)F)cc1)[C@H]1CCCN1C(=O)[C@H]1CCCN(S(=O)(=O)N2CC(C(F)F)C2)C1` [Example 274, 1-(((3S)-1-((3-(difluoromethyl)-1-azetidinyl)sulfonyl)-3-piperidinyl)carbonyl)-N-(4-(trifluoromethyl)benzyl)-D-prolinamide] displayed an AC1.4 of 0.6977 µM.

Compound `O=C(N[C@@H](c1cc(F)c(Cl)cc1F)C1COC1)[C@H]1C[C@H]2C[C@H]2N1C(=O)c1cc(C(F)(F)F)ncn1` [Example 487, (1R,3R,5R)-N-((R)-(4-chloro-2,5-difluorophenyl)(3-oxetanyl)methyl)-2-((6-(trifluoromethyl)-4-pyrimidinyl)carbonyl)-2-azabicyclo[3.1.0]hexane-3-carboxamide] displayed an AC1.4 of 2.218 µM.

The compound `Cc1cc(C(=O)N2[C@@H](C(=O)N[C@@H](c3cc(F)c(Cl)cc3F)C3COC3)C[C@H]3C[C@H]32)ccn1` [Example 621, (1R,3R,5R)-N-((R)-(4-chloro-2,5-difluorophenyl)(3-oxetanyl)methyl)-2-((2-methyl-4-pyridinyl)carbonyl)-2-azabicyclo[3.1.0]hexane-3-carboxamide] had an AC1.4 of 3.9478 µM.

Compound `Cc1cc(C(=O)N2[C@@H](C(=O)N[C@@H](c3cc(F)c(C(F)(F)F)cc3F)C3COC3)C[C@H]3C[C@H]32)c2[nH]ncc2c1` [Example 820, (1R,3R,5R)-N-((R)-(2,5-difluoro-4-(trifluoromethyl)phenyl)(oxetan-3-yl)methyl)-2-(5-methyl-1H-indazole-7-carbonyl)-2-azabicyclo[3.1.0]hexane-3-carboxamide] yielded an AC1.4 of 0.9916 µM.

Turning to `O=C(N[C@@H](c1cc(F)c(Cl)cc1F)C1CC1)[C@H]1C[C@H]2C[C@H]2N1C(=O)c1ccnc(S(=O)(=O)C2CC2)c1` [Example 295, (1R,3R,5R)-N-((R)-(4-chloro-2,5-difluorophenyl)(cyclopropyl)methyl)-2-((2-(cyclopropylsulfonyl)-4-pyridinyl)carbonyl)-2-azabicyclo[3.1.0]hexane-3-carboxamide], the AC1.4 worked out at 0.7671 µM.

`CON(C)S(=O)(=O)c1cccc(C(=O)N2CCC[C@@H]2C(=O)NCc2ccc(C(F)(F)F)cc2)c1` [Example 649, 1-(3-(methoxy(methyl)sulfamoyl)benzoyl)-N-(4-(trifluoromethyl)benzyl)-D-prolinamide] had an AC1.4 of 4.4365 µM.
